Assay results from patent US20040023952A1 (priority 2002, published 2004).

Tested on: V1 cortical cells
Format: in vivo, rhesus monkeys (Macaca mulatta)
Conditions: for signal-to-noise ratio of cortical cells (response to appropriate stimuli divided by spontaneous discharge rate): FIG. 7; for peak response (maximum visually evoked response) of V1 cortical cells / spontaneous activity of V1 cortical cells: intracortical delivery through microelectrode; for peak response (maximum visually evoked response) of V1 cortical cells: FIG. 5; for spontaneous activity of V1 cortical cells: FIG. 6; for direction selectivity of a representative cortical cell / orientation selectivity of a representative cortical cell / peak response of a representative cortical cell / spontaneous activity of a representative cortical cell: single cell of old monkey, FIG. 10, three minutes after GABA or muscimol application, within five minutes of bicuculline
Excerpt: Extracellular single-neuron recording techniques were used to examine the stimulus selectivities of VI cells in very old rhesus monkeys showing normal optics and retinogeniculate projections. A total of 187 neurons were studied in 4 young rhesus monkeys (Maraca mulatta), and 254 neurons in 4 old rhesus monkeys. Subjects for physiological experiments were abbreviated as OM1-4 (for old monkey 1-4) and YM1-4 (for young monkey 1-4). Retinal data were obtained from one additional young macaque (YM5, Macaca fascicularis). Multiple ophthalmological exams were conducted to ensure optical and retinal health of all subjects prior to testing.
Subjects for this study were four young adult (7-9 year old) and four very old (28-30 year old) female rhesus monkeys (Macaca mullata). […] Thus, the 28-30 year old monkeys were considered old, whereas the 7-9 year old monkeys were at an age considered sexually mature. Retinal control data for FIG. 1 are provided from one additional young female Macaca facsicularis, which was used in previous studies. Onset latency data from YM4 are published. Monkeys were examined ophthalmoscopically, and no apparent optical or retinal problems were detected that would impair visual function. Retinal blood vessels, lens clarity and the maculae all appeared normal. All cells studied had receptive fields between 2 and 5 degrees from the fovea. Monkeys were prepared for electrophysiological recording using standard techniques consistent with Society for Neuroscience and National Institute of Health guidelines.
Subjects were sedated with Ketamine HC1 (Ketalar, Parke-Davis, Morris Plains, N.J.) and then anesthetized with halothane (5%; Halocarton Laboratories, River Edge, N.J.) in a 70:30 mixture of […]. Intravenous and tracheal cannulae were inserted, the animals were placed in a stereotaxic apparatus, and pressure points and incisions were infiltrated with a long-acting anesthetic (2% lidocaine HCI, Copley Pharmaccuticak, Canton, Mass.). A mixture of D-tubocurarine (0.4 mg per kg per hour) and gallamine triethiodide (7 mg per kg per hour) was infused intravenously to induce and maintain paralysis. Animals were ventilated, and anesthesia was maintained with a mixture of nitrous oxide (75%), oxygen (25%) and halothane (0.25-1.0%) as needed.
A small burr hole was made above the striate cortex (V1), and filled with a 4% solution of agar in saline and sealed with wax. The eyes were protected from desiccation with contact lenses; spectacle lenses and artificial pupils were used when needed to focus the eyes on a tangent screen positioned 228 cm from the retina. The locations of the optic discs and foveae were determined repeatedly during the course of each recording session. No visible deterioration in optics occurred during the experimental period (2-5 days).
Extracellular action potentials of isolated cortical cells were recorded with microelectrodes having impedances of 3-5 MΩ. The electrode was advanced using a hydraulic microdrive (David Kopf instruments, Tojunga, Calif.) to precisely position it. The position of the electrode was confirmed by determining the receptive filed positions of the cortical cells at the recording site. A1 V1 cells studied had receptive fields between about 3 and 7 degrees from the fovea.
After placing the microelectrode as in Example 1, visual stimuli were measured using a Tektronix (Beaverton, Oreg.) 608 display driven by a Picasso (Inning Cambridge, Mass.) image synthesizer and a texture/motion generator (Innisfree). The Picasso and texture/motion generator were computer controlled in conjunction with a hardware and software package from Cambridge Electronics Design (Cambridge, England). The center of the display screen was 171 cm from the animal's retina.
The physiological orientation biases and direction biases of cortical cell were studied quantitatively. The orientation of each drifting stimulus presented was orthogonal to its direction of motion. […]

SMILES	signal-to-noise ratio of cortical cells (response to appropriate stimuli divided by spontaneous discharge rate) (old monkeys)	number/proportion of orientation and direction selective cells in area V1 (old monkeys, FIGS. 8 and 9)	peak response (maximum visually evoked response) of V1 cortical cells (old monkeys)	spontaneous activity of V1 cortical cells (old monkeys)	time until effects are seen after drug administration (old monkeys, intracortical delivery, current 15-50 n amp for 1-3 minutes)	direction selectivity of a representative cortical cell	orientation selectivity of a representative cortical cell	peak response of a representative cortical cell	spontaneous activity of a representative cortical cell	time until drug effects wear off after administration ceases (old monkeys, intracortical delivery)
NCCCC(=O)O [GABA, Gamma-aminobutyric acid]	increased signal-to-noise ratios dramatically	very close to what is found in normal young monkeys	reduce the peak responses and spontaneous activity of cortical cells to the normal levels seen in young monkeys	reduce the peak responses and spontaneous activity of cortical cells to the normal levels seen in young monkeys	Three to five minutes	moderate direction selectivity	strong orientation	peak response decreased	decreased as did its spontaneous activity	–
NCc1cc(=O)[nH]o1 [muscimol]	increased signal-to-noise ratios dramatically	–	reduce the peak responses and spontaneous activity of cortical cells to the normal levels seen in young monkeys	reduce the peak responses and spontaneous activity of cortical cells to the normal levels seen in young monkeys	–	very strong direction selectivity	moderate orientation selectivity	decreased peak response	decreased spontaneous activity	Five minutes after the discontinuation
